Data on six compounds can be found in patent US7452904B2, “1-alkyl-1-azoniabicyclo' 2.2.2 octane carbamate derivatives and their use as muscarinic receptor antagonists” (Chiesi Farmaceutici S.p.A., priority 2001, dated 2008).

One test concerns the target T1, human M3 receptors (Homo sapiens, UniProt P20309).
T1 construct: expressed in transfected cells; host or cells: CHO-K1
Put plainly: Binding test to human M3 muscarinic receptor ([3H]-NMS displacement). To be noted: membranes from CHO-K1 cells transfected with human M3 receptor; [3H]-NMS 0.3-0.5 nM, 60 min, 25° C.; mean of two independent experiments, each in duplicate. How it is done:
(§1) Binding Test to Human M2 and M3 Muscarinic Receptors
(§2) Membranes from CHO—K1 cells transfected with human M2 or M3 receptors were used. The summarised experimental procedure for both receptors was the following: cell membranes (15-20 μg) were incubated with [^3H]-NMS (0.3-0.5 nM) for 60 min at 25° C., in presence or absence of the antagonists. Incubation was carried out in 96 wells polystyrene microplates in a total incubation volume of 0.2 mL of PBS pH 7.4. Non specific binding was determined in parallel assays in presence of atropine (5 μM). Samples were filtered through type GF/C glass fibre, preincubated with PEI 0.3%. Filters were washed 3-4 times with 50 mM Tris-HCl, 0.9% NaCl, pH 7.4 at 4° C., and dried at 50° C. for 45 min. Filter bound radioactivity was quantified by liquid scintillation counting.
(§3) For the calculation of the inhibition constant (Ki), displacement curves were analysed by non-linear regression (GraphPad Prism). Dissociation constant (Kd) of [^3H]-NMS for each receptor was obtained through the saturation curves obtained in the same conditions as the experiments carried out with the corresponding antagonists.

For another test, the target named is T2, human M2 receptors (Homo sapiens, UniProt P08172).
T2 construct: expressed in transfected cells; host or cells: CHO-K1
T2 sequence (P08172 1-466): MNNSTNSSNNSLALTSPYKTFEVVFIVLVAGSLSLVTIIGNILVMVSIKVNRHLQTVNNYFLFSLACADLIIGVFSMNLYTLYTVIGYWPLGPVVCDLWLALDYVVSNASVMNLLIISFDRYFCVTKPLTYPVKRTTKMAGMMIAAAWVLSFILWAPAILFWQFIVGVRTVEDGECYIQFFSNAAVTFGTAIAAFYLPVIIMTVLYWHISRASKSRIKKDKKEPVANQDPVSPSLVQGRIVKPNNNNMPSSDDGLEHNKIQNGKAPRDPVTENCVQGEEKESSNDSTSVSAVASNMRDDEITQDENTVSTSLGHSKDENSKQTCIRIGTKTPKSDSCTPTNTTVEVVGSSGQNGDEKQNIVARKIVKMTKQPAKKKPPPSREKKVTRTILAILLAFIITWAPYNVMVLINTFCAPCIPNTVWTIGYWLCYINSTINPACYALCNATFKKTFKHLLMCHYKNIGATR
Put plainly: Binding test to human M2 muscarinic receptor ([3H]-NMS displacement), reported as M2/M3 selectivity. To be noted: ratio of Ki at cloned human M2 versus M3 receptors; ratios greater than 1 indicate M3 selective activity. How it is done:
as §1, §2, §3

T1 sequence (P20309 whole entry): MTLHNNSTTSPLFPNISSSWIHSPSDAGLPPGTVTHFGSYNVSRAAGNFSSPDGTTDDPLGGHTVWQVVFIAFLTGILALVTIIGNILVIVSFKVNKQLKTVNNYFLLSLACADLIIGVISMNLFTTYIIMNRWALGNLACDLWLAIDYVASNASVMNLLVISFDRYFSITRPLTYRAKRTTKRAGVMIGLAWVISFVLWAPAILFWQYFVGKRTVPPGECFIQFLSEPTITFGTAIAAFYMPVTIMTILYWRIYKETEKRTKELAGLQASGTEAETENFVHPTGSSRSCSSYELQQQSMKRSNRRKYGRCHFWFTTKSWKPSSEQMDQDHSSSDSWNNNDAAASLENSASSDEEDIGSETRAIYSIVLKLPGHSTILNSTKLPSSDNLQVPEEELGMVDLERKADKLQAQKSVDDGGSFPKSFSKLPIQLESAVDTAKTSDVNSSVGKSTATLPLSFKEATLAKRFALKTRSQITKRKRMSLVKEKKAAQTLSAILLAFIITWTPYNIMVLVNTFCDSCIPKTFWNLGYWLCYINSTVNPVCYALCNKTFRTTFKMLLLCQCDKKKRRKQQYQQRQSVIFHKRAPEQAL

Consider `O=C(O[C@H]1C[N+]2(CCCOc3ccccc3)CCC1CC2)N(Cc1ccc(F)cc1)c1ccccc1.[Br-]` [Ex. 11, (R)-3-[(4-Fluorobenzyl)phenylcarbamoyloxy]-1-(3-phenoxypropyl)-1-azoniabicyclo[2.2.2]octane; bromide], for which the Ki on human M3 receptors is 0.34 nM. Further, the “M2/M3 (ratio)” value on human M2 receptors amounted to 80 ratio.

On human M3 receptors, `O=C(O[C@H]1C[N+]2(CCSc3ccccc3)CCC1CC2)N(Cc1cc(F)c(F)c(F)c1)c1ccccc1F.[Cl-]` [Ex. 50, (R)-3-[(2-Fluorophenyl)-(3,4,5-trifluorobenzyl)carbamoyloxy]-1-(2-phenylsulfanylethyl)-1-azoniabicyclo[2.2.2]octane; chloride] showed a Ki of 0.06 nM. On human M2 receptors, the “M2/M3 (ratio)” value is 345 ratio.

On human M3 receptors, `O=C(C[N+]12CCC(CC1)[C@@H](OC(=O)N(Cc1ccsc1)c1cccc(F)c1)C2)c1ccccc1.[Br-]` [Ex. 69, (R)-3-[(3-Fluorophenyl)thiophen-3-ylmethylcarbamoyloxy]-1(2-oxo-2-phenylethyl)-1-azoniabicyclo[2.2.2]octane; bromide] had a Ki of 0.02 nM. Further, the “M2/M3 (ratio)” value on human M2 receptors was determined as 32 ratio.

As for `Cl.O=C(O[C@H]1CN2CCC1CC2)N(Cc1ccc(Cl)s1)c1cccc(F)c1` [Int. 29, (R)-(5-Chlorothiophen-2-ylmethyl)-(3-fluorophenyl)carbamic acid 1-azabicyclo[2.2.2]oct-3-yl ester; hydrochloride], on human M3 receptors, the inhibition constant (Ki) was 0.02 nM. Besides, on human M2 receptors, the “M2/M3 (ratio)” value is 105 ratio.

At human M3 receptors, `Cc1cccc(N(Cc2ccsc2)C(=O)O[C@H]2CN3CCC2CC3)c1.Cl` [Int. 32, (R)-Thiophen-3-ylmethyl-m-tolylcarbamic acid 1-azabicyclo[2.2.2]oct-3-yl ester; hydrochloride] had an inhibition constant Ki of 0.15 nM. The “M2/M3 (ratio)” value on human M2 receptors was determined as 23 ratio.

The compound `O=C(O[C@H]1CN2CCC1CC2)N1CCc2ccccc2[C@@H]1c1ccccc1` [SOLIFENACIN, solifenacin, reference compound] gave an inhibitory constant (Ki) at human M3 receptors of 8.3 nM. For the same compound, the “M2/M3 (ratio)” value on human M2 receptors turned out to be 10 ratio.

The term Ki denotes the dissociation constant of the complex between target and ligand, obtained from inhibition or displacement.
